Data from ChEMBL document CHEMBL1144431, “6-Hydroxy-1,2,3,4-tetrahydro-isoquinoline-3-carboxylic acid mimics active conformation of tyrosine in opioid peptides” (Bioorg Med Chem Lett, 2005).
Residues, ends and D or L forms follow the SMILES beside them.

The compounds below were run against Mu-type opioid receptor (Rattus norvegicus, UniProt P33535) (assay: Inhibition of [3H]naloxone binding to rat brain homogenate Opioid receptor mu).
Chain of Mu-type opioid receptor (P33535 whole entry): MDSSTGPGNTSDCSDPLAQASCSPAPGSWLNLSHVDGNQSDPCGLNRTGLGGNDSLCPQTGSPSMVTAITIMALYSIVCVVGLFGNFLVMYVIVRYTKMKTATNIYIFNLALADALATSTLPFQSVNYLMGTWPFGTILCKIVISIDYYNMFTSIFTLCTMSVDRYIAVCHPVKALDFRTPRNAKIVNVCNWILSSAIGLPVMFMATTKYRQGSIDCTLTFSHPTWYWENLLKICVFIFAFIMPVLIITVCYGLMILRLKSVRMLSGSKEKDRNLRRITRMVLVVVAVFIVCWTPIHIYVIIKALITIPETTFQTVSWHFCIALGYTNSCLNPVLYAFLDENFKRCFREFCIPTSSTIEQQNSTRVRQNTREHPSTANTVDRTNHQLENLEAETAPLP
For CC(C)[C@H](NC(=O)[C@H](CC(=O)O)NC(=O)[C@H](Cc1ccccc1)NC(=O)[C@@H](C)NC(=O)[C@@H]1Cc2cc(O)ccc2CN1)C(=O)N[C@H](C(=O)NCC(N)=O)C(C)C, the Ki was > 10000 nM.
For C[C@@H](NC(=O)[C@@H]1Cc2ccc(O)cc2CN1)C(=O)N[C@@H](Cc1ccccc1)C(=O)NCC(=O)N[C@@H](Cc1ccc(O)cc1)C(=O)N1CCC[C@H]1C(=O)N[C@@H](CO)C(N)=O, the Ki was 1620 nM.
C[C@@H](NC(=O)[C@@H]1Cc2cc(O)ccc2CN1)C(=O)N[C@@H](Cc1ccccc1)C(=O)NCC(=O)N[C@@H](Cc1ccc(O)cc1)C(=O)N1CCC[C@H]1C(=O)N[C@@H](CO)C(N)=O gave a Ki of 253 nM.
C[C@@H](NC(=O)[C@@H]1Cc2cc(O)ccc2CN1)C(=O)N[C@@H](Cc1ccccc1)C(=O)N[C@@H](Cc1ccccc1)C(N)=O showed a Ki of 57.8 nM.
For CC(C)[C@H](NC(=O)[C@H](CC(=O)O)NC(=O)[C@H](Cc1ccccc1)NC(=O)[C@@H](C)NC(=O)[C@@H]1Cc2ccc(O)cc2CN1)C(=O)N[C@H](C(=O)NCC(N)=O)C(C)C, the Ki was > 10000 nM.
Compound NC(=O)[C@H](Cc1ccccc1)NC(=O)[C@H](Cc1ccccc1)NC(=O)[C@@H]1CCCN1C(=O)[C@@H]1Cc2cc(O)ccc2CN1 has a Ki of 216 nM.
CC(C)[C@H](NC(=O)[C@H](CC(=O)O)NC(=O)[C@H](Cc1ccccc1)NC(=O)[C@@H](C)NC(=O)[C@@H](N)Cc1ccc(O)cc1)C(=O)N[C@H](C(=O)NCC(N)=O)C(C)C [DELTORPHIN C] gave a Ki of 1700 nM.
For C[C@@H](NC(=O)[C@@H](N)Cc1ccc(O)cc1)C(=O)N[C@@H](Cc1ccccc1)C(=O)NCC(=O)N[C@@H](Cc1ccc(O)cc1)C(=O)N1CCC[C@H]1C(=O)N[C@@H](CO)C(N)=O [DERMORPHIN], the Ki was 2.4 nM.

These compounds were tested against Delta-type opioid receptor (Rattus norvegicus, UniProt P33533) (assay: Inhibition of [3H]naloxone binding to rat brain homogenate Opioid receptor delta).
Chain of Delta-type opioid receptor (P33533 whole entry): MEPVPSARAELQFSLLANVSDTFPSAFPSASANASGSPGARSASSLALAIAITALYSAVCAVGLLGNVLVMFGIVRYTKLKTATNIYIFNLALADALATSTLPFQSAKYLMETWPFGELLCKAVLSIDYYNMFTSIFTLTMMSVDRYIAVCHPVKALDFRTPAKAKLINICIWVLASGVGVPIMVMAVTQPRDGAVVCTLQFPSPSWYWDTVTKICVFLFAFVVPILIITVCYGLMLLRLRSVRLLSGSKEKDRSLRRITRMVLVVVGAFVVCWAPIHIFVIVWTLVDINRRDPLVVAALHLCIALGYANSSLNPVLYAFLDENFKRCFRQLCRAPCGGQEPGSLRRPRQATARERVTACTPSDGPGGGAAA
In the case of CC(C)[C@H](NC(=O)[C@H](CC(=O)O)NC(=O)[C@H](Cc1ccccc1)NC(=O)[C@@H](C)NC(=O)[C@@H]1Cc2cc(O)ccc2CN1)C(=O)N[C@H](C(=O)NCC(N)=O)C(C)C, the Ki is reported as 10.4 nM.
C[C@@H](NC(=O)[C@@H]1Cc2ccc(O)cc2CN1)C(=O)N[C@@H](Cc1ccccc1)C(=O)NCC(=O)N[C@@H](Cc1ccc(O)cc1)C(=O)N1CCC[C@H]1C(=O)N[C@@H](CO)C(N)=O was tested, and the Ki was > 10000 nM.
With C[C@@H](NC(=O)[C@@H]1Cc2cc(O)ccc2CN1)C(=O)N[C@@H](Cc1ccccc1)C(=O)NCC(=O)N[C@@H](Cc1ccc(O)cc1)C(=O)N1CCC[C@H]1C(=O)N[C@@H](CO)C(N)=O the Ki was > 10000 nM.
For C[C@@H](NC(=O)[C@@H]1Cc2cc(O)ccc2CN1)C(=O)N[C@@H](Cc1ccccc1)C(=O)N[C@@H](Cc1ccccc1)C(N)=O, the Ki was > 10000 nM.
Compound CC(C)[C@H](NC(=O)[C@H](CC(=O)O)NC(=O)[C@H](Cc1ccccc1)NC(=O)[C@@H](C)NC(=O)[C@@H]1Cc2ccc(O)cc2CN1)C(=O)N[C@H](C(=O)NCC(N)=O)C(C)C has a Ki of 304 nM.
For NC(=O)[C@H](Cc1ccccc1)NC(=O)[C@H](Cc1ccccc1)NC(=O)[C@@H]1CCCN1C(=O)[C@@H]1Cc2cc(O)ccc2CN1, the Ki was > 10000 nM.
For C[C@@H](NC(=O)[C@@H](N)Cc1ccc(O)cc1)C(=O)N[C@@H](Cc1ccccc1)C(=O)N[C@@H](Cc1ccccc1)C(N)=O (HELM PEPTIDE1{Y.[dA].F.F.[am]}$$$$V2.0), the Ki was 1820 nM.
With CC(C)[C@H](NC(=O)[C@H](CC(=O)O)NC(=O)[C@H](Cc1ccccc1)NC(=O)[C@@H](C)NC(=O)[C@@H](N)Cc1ccc(O)cc1)C(=O)N[C@H](C(=O)NCC(N)=O)C(C)C [DELTORPHIN C] the Ki was 0.73 nM.
